One may read the Ki as the equilibrium dissociation constant of an inhibitor or competing ligand from its target. Higher therefore signals a looser hold on the target.

The assay concerns the target phosphonoacetate hydrolase (PAc hydrolase) (Pseudomonas fluorescens, UniProt Q51782). Type of assay: biochemical.

Chain of phosphonoacetate hydrolase (PAc hydrolase) (Q51782 2-407): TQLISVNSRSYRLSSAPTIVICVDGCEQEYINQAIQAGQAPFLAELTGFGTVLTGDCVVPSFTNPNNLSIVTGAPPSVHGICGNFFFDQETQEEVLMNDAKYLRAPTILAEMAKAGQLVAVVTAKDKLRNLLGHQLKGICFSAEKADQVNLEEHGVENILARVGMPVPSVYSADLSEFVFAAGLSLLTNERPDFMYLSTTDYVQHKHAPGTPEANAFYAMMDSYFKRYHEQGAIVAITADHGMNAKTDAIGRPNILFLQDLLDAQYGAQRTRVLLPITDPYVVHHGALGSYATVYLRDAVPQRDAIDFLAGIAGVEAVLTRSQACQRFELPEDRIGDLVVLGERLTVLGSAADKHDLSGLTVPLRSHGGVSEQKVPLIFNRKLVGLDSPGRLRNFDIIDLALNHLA

For the molecule `O=C(O)C(=O)CP(=O)(O)O` [phosphonopyruvate], the affinity, expressed as Ki, was 1200 ± 800 µM.

(Values after article PMC3102601 (2011).)
